Active and inactive are the calls of the source. The rule behind the calls is not given here.

Experimental findings from PubChem BioAssay AID1259407 (Chemical Carcinogenesis Research Information System (CCRIS), 2018) are described below.

The data set concerns CCRIS mutagenicity, Ames/micronucleus/aberration tests. Briefly: CCRIS mutagenicity studies.
Setting [1] is: Test System: AMES SALMONELLA TYPHIMURIUM, Strain/Indicator: TA98, Metabolic Activation: NONE, Method: STANDARD PLATE.
The mark [2] stands for this setting: Test System: AMES SALMONELLA TYPHIMURIUM, Strain/Indicator: TA98, Metabolic Activation: RAT, LIVER, S-9, AROCLOR 1254, Method: STANDARD PLATE.
Where [3] appears, read: Test System: AMES SALMONELLA TYPHIMURIUM, Strain/Indicator: TA100, Metabolic Activation: NONE, Method: STANDARD PLATE.
Where [4] appears, read: Test System: AMES SALMONELLA TYPHIMURIUM, Strain/Indicator: TA100, Metabolic Activation: RAT, LIVER, S-9, AROCLOR 1254, Method: STANDARD PLATE.
Setting [5] is: Test System: MOUSE LYMPHOMA, Strain/Indicator: L5178Y (TK+/TK-), Metabolic Activation: NONE, Method: SUSPENSION/PLATE.
Setting [6] is: Test System: MOUSE LYMPHOMA, Strain/Indicator: L5178Y (TK+/TK-), Metabolic Activation: RAT, LIVER, S-9, AROCLOR 1254, Method: SUSPENSION/PLATE.
[7] abbreviates: Test System: AMES SALMONELLA TYPHIMURIUM, Strain/Indicator: TA1535, Metabolic Activation: NONE, Method: STANDARD PLATE.
[8] abbreviates: Test System: AMES SALMONELLA TYPHIMURIUM, Strain/Indicator: TA1535, Metabolic Activation: RAT, LIVER, S-9, AROCLOR 1254, Method: STANDARD PLATE.

`CN(C)C=O`: the mutagenic call is “inactive; negative” (Test System: AMES SALMONELLA TYPHIMURIUM, Strain/Indicator: TA97, Metabolic Activation: NONE, Method: STANDARD PLATE); “inactive; negative” (Test System: AMES SALMONELLA TYPHIMURIUM, Strain/Indicator: TA97, Metabolic Activation: RAT, LIVER, S-9, AROCLOR 1254, Method: STANDARD PLATE); “inactive; negative” under setting [1]; “inactive; negative” under setting [2]; “inactive; negative” under setting [3]; “inactive; negative” under setting [4]. Besides, the mutagenic call (Test System: Ames Salmonella typhimurium, Strain/Indicator: TA98, Metabolic Activation: None, Method: Gas exposure method) is “inactive; negative”; the mutagenic call (Test System: Ames Salmonella typhimurium, Strain/Indicator: TA98, Metabolic Activation: Rat, Liver, S9, Sodium phenobarbital and 5,6-benzoflavone (10%), Method: Gas exposure method) is “inactive; negative”; the mutagenic call (Test System: Ames Salmonella typhimurium, Strain/Indicator: TA100, Metabolic Activation: None, Method: Gas exposure method) is “inactive; negative”; the mutagenic call (Test System: Ames Salmonella typhimurium, Strain/Indicator: TA100, Metabolic Activation: Rat, Liver, S9, Sodium phenobarbital and 5,6-benzoflavone (10%), Method: Gas exposure method) is “inactive; negative”; the mutagenic call (Test System: Ames Salmonella typhimurium, Strain/Indicator: TA1535, Metabolic Activation: None, Method: Gas exposure method) is “inactive; negative”; the mutagenic call (Test System: Ames Salmonella typhimurium, Strain/Indicator: TA1535, Metabolic Activation: Rat, Liver, S9, Sodium phenobarbital and 5,6-benzoflavone (10%), Method: Gas exposure method) was “inactive; negative”. The mutagenic call runs as follows: (Test System: Ames Salmonella typhimurium, Strain/Indicator: TA1537, Metabolic Activation: None, Method: Gas exposure method) “inactive; negative”; (Test System: Ames Salmonella typhimurium, Strain/Indicator: TA1537, Metabolic Activation: Rat, Liver, S9, Sodium phenobarbital and 5,6-benzoflavone (10%), Method: Gas exposure method) “inactive; negative”; (Test System: E. coli, Strain/Indicator: WP2uvrA/pKM101, Metabolic Activation: None, Method: Gas exposure method) “inactive; negative”; (Test System: E. coli, Strain/Indicator: WP2uvrA/pKM101, Metabolic Activation: Rat, Liver, S9, Sodium phenobarbital and 5,6-benzoflavone (10%), Method: Gas exposure method) “inactive; negative”; under setting [5], “inactive; negative”; under setting [6], “inactive; negative”. In addition, the mutagenic call (Test System: MOUSE LYMPHOMA, Strain/Indicator: L5178Y (TK+/TK-), Metabolic Activation: RAT, LIVER, S-9, Method: SUSPENSION/PLATE) is “inactive; negative”.

Turning to `O=C1c2ccccc2C(=O)c2cc(O)ccc21`, the mutagenic call is “active; positive” (Test System: AMES SALMONELLA TYPHIMURIUM, Strain/Indicator: TA98, Metabolic Activation: NONE, Method: PREINCUBATION); “active; positive” (Test System: AMES SALMONELLA TYPHIMURIUM, Strain/Indicator: TA98, Metabolic Activation: RAT, LIVER, S-9, AROCLOR 1254 (10%), Method: PREINCUBATION); “inactive; negative” (Test System: AMES SALMONELLA TYPHIMURIUM, Strain/Indicator: TA100, Metabolic Activation: NONE, Method: PREINCUBATION); “inactive; negative” (Test System: AMES SALMONELLA TYPHIMURIUM, Strain/Indicator: TA100, Metabolic Activation: RAT, LIVER, S-9, AROCLOR 1254 (10%), Method: PREINCUBATION).

On to `O=C1c2ccccc2-c2ccccc21`, for which the mutagenic call (Test System: AMES SALMONELLA TYPHIMURIUM, Strain/Indicator: TA98, Metabolic Activation: HAMSTER, LIVER, S-9, AROCLOR 1254, Method: STANDARD PLATE) was “inactive; negative”; the mutagenic call under setting [1] is “inactive; negative”; the mutagenic call under setting [2] was “inactive; negative”; the mutagenic call (Test System: AMES SALMONELLA TYPHIMURIUM, Strain/Indicator: TA100, Metabolic Activation: HAMSTER, LIVER, S-9, AROCLOR 1254, Method: STANDARD PLATE) is “inactive; negative”; the mutagenic call under setting [3] was “inactive; negative”; the mutagenic call under setting [4] is “inactive; negative”. Further, the mutagenic call is, setting by setting: (Test System: AMES SALMONELLA TYPHIMURIUM, Strain/Indicator: TA1535, Metabolic Activation: HAMSTER, LIVER, S-9, AROCLOR 1254, Method: STANDARD PLATE) “inactive; negative”; under setting [7], “inactive; negative”; under setting [8], “inactive; negative”; (Test System: AMES SALMONELLA TYPHIMURIUM, Strain/Indicator: TA1537, Metabolic Activation: HAMSTER, LIVER, S-9, AROCLOR 1254, Method: STANDARD PLATE) “inactive; negative”; (Test System: AMES SALMONELLA TYPHIMURIUM, Strain/Indicator: TA1537, Metabolic Activation: NONE, Method: STANDARD PLATE) “inactive; negative”; (Test System: AMES SALMONELLA TYPHIMURIUM, Strain/Indicator: TA1537, Metabolic Activation: RAT, LIVER, S-9, AROCLOR 1254, Method: STANDARD PLATE) “inactive; negative”. Besides, the mutagenic call is, setting by setting: under setting [5], “inactive; negative. reevaluation of results: inconclusive”; under setting [6], “inactive; negative. reevaluation of results: negative”.

With `O=C1c2ccc(O)cc2C(=O)c2ccc(O)cc21`, the mutagenic call runs as follows: under setting [1], “inactive; negative”; under setting [2], “inactive; negative”; under setting [3], “inactive; negative”; under setting [4], “inactive; negative”; under setting [7], “inactive; negative”; under setting [8], “inactive; negative”. Further, the mutagenic call was “inactive; negative” (Test System: AMES SALMONELLA TYPHIMURIUM, Strain/Indicator: TA1538, Metabolic Activation: NONE, Method: STANDARD PLATE) and “inactive; negative” (Test System: AMES SALMONELLA TYPHIMURIUM, Strain/Indicator: TA1538, Metabolic Activation: RAT, LIVER, S-9, AROCLOR 1254, Method: STANDARD PLATE).

On to `CC(=O)Nc1ccccc1C`, for which the mutagenic call was “inactive; negative” under setting [1], “inactive; negative” under setting [2], “inactive; negative” under setting [3] and “inactive; negative” under setting [4].
